Experimental findings from ChEMBL document CHEMBL1201862, “PubChem BioAssay data set” (2004) are described below.

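Results reflect a 48-hour exposure of cells in 96-well plates to compound at five concentrations. Abbreviation: GI50, concentration required for 50% inhibition of growth.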 The source made the active and inactive calls. No stated cut-off is given here; in the data, active = GI50 up to about 1.1 µM and inactive = higher. Bounds are passed on as bounds.

Some test systems named below: NCI-H226; MCF7; HOP-92; SR; MDA-MB-231; HL-60; ACHN; DU-145; OVCAR-8; BT-549; RXF 393; HOP-62; OVCAR-4; T47D; HCC 2998; SK-MEL-2; SF-268; TK-10; MDA-MB-435; SF-539.
Test in all cases: growth of human tumour cells (NCI), 48 h

Turning to `S=C1NCN2CCN(CC2)CNC(=S)C(=S)NCN2CCN(CC2)CNC1=S`, the GI50 in the assay on NCI-H226 is > 100 µM (inactive); in the assay with MCF7, 54.5 µM (inactive); in the assay with HOP-92, 62.1 µM (inactive); with SR, 58.9 µM (inactive); in the assay with MDA-MB-231, > 100 µM (inactive); with HL-60, 24.2 µM (inactive). Also, the GI50 in the assay on ACHN was 72.1 µM (inactive); in the assay with DU-145 it was 36.8 µM (inactive); with OVCAR-8, 31.8 µM (inactive); in the assay on BT-549, 59 µM (inactive); in the assay with RXF 393, 56 µM (inactive); in the assay on HOP-62, 37.9 µM (inactive). The GI50 in the assay with OVCAR-4 is > 100 µM (inactive); with T47D it was > 100 µM (inactive); with HCC 2998 it was 78.5 µM (inactive); in the assay on SK-MEL-2 it was 43.2 µM (inactive); in the assay with SF-268, 61.2 µM (inactive); in the assay on TK-10, > 100 µM (inactive). The GI50 in the assay on MDA-MB-435 is 39.8 µM (inactive).
As for `Cc1cc(C)c(-n2c(-c3ccc(Br)cc3)cs/c2=N\N=C2C=C(C(C)(C)C)C(=O)C(C(C)(C)C)=C2)c(C)c1`, the GI50 with NCI-H226 was > 100 µM (inactive); in the assay with MCF7 it was > 100 µM (inactive); in the assay on HOP-92 it was > 50.1 µM (inactive); in the assay with SR it was > 100 µM (inactive); in the assay on MDA-MB-231, 55.3 µM (inactive); with HL-60 it was > 100 µM (inactive). Besides, the GI50 was > 100 µM (inactive) in the assay with ACHN; > 69.3 µM (inactive) in the assay on SF-539; > 100 µM (inactive) in the assay with DU-145; > 100 µM (inactive) with OVCAR-8; > 100 µM (inactive) in the assay on BT-549; 21.7 µM (inactive) in the assay with RXF 393. The GI50 in the assay on HOP-62 was 32.7 µM (inactive); in the assay on OVCAR-4, > 100 µM (inactive); in the assay with T47D it was > 100 µM (inactive); in the assay with HCC 2998, > 100 µM (inactive); in the assay on SK-MEL-2, > 100 µM (inactive); in the assay with SF-268, 69.8 µM (inactive). For the same compound, the GI50 in the assay with TK-10 was > 71.8 µM (inactive); with MDA-MB-435 it was > 100 µM (inactive).
As to `C/C(=N\Nc1nc2ccccc2s1)c1cnccn1`, the GI50 in the assay with NCI-H226 was 0.247 µM (active); in the assay with MCF7, 1.52 µM (inactive); in the assay with HOP-92 it was 1.51 µM (inactive); with SR it was 0.652 µM (active); in the assay on MDA-MB-231, 0.757 µM (active); in the assay on ACHN, 0.397 µM (active). For the same compound, the GI50 with SF-539 is 5.24 µM (inactive); in the assay with DU-145, 4.34 µM (inactive); in the assay with OVCAR-8 it was 1.7 µM (inactive); in the assay with BT-549 it was 11.1 µM (inactive); in the assay with RXF 393 it was 12.7 µM (inactive); with HOP-62, 2.75 µM (inactive). Further, the GI50 with OVCAR-4 was 16.7 µM (inactive); in the assay on T47D it was 0.769 µM (active); in the assay with HCC 2998, 7.21 µM (inactive); with SK-MEL-2, 7.5 µM (inactive); in the assay on SF-268 it was 1.16 µM (inactive); with MDA-MB-435, 6.01 µM (inactive).
With `Cc1cc(C)c(C2=NOC(c3ccccc3)(c3cc(=O)n(-c4ccccc4)s3)O2)c(C)c1` (stereo not drawn), the GI50 with NCI-H226 is 31.5 µM (inactive); in the assay on MCF7, 18.6 µM (inactive); with HOP-92, 23.2 µM (inactive); with SR it was 89.7 µM (inactive); in the assay with MDA-MB-231, 30.8 µM (inactive); in the assay on HL-60 it was 22.1 µM (inactive). Besides, the GI50 in the assay on ACHN was 24.2 µM (inactive); with DU-145, 32.1 µM (inactive); in the assay with OVCAR-8, 18.7 µM (inactive); in the assay on BT-549 it was 24.8 µM (inactive); with RXF 393, 17.3 µM (inactive); with HOP-62 it was 33.2 µM (inactive). Moreover, the GI50 with OVCAR-4 is 53.1 µM (inactive); in the assay on T47D, 17.3 µM (inactive); with HCC 2998 it was 32.5 µM (inactive); in the assay on SK-MEL-2, 28 µM (inactive); with SF-268, 44.2 µM (inactive); in the assay on TK-10, 25.1 µM (inactive). The GI50 with MDA-MB-435 was 48.3 µM (inactive).
As for `COc1cc2c(cc1OCc1ccccc1)NC(=O)[C@@H]1C[C@@H](O)CN1C2=O`, the GI50 is > 100 µM (inactive) in the assay on NCI-H226; > 100 µM (inactive) in the assay on MCF7; > 100 µM (inactive) with HOP-92; 47 µM (inactive) with SR; 75 µM (inactive) in the assay with MDA-MB-231; > 100 µM (inactive) in the assay on ACHN. In addition, the GI50 was > 100 µM (inactive) with SF-539; > 100 µM (inactive) with DU-145; > 100 µM (inactive) with OVCAR-8; > 100 µM (inactive) in the assay with BT-549; > 100 µM (inactive) in the assay on RXF 393; 47.6 µM (inactive) in the assay on HOP-62. The GI50 in the assay with OVCAR-4, in the assay on T47D, with HCC 2998, in the assay with SK-MEL-2, in the assay with SF-268 and in the assay on TK-10 was > 100 µM (inactive) in each case. For the same compound, the GI50 in the assay on MDA-MB-435 is > 100 µM (inactive).
With `COc1cnc2cc(C(=O)O)c3c([N+](=O)[O-])cccc3c2c1`, the GI50 with NCI-H226, in the assay with MCF7, in the assay on HOP-92, with SR, in the assay on MDA-MB-231 and with HL-60 was > 100 µM (inactive) throughout. For the same compound, the GI50 with ACHN, in the assay with DU-145, in the assay with OVCAR-8, with BT-549, in the assay on RXF 393 and in the assay with HOP-62 was > 100 µM (inactive) each time. The GI50 in the assay with OVCAR-4, in the assay on T47D, in the assay with HCC 2998, in the assay with SK-MEL-2, in the assay on SF-268 and with TK-10 was > 100 µM (inactive) throughout. Besides, the GI50 in the assay with MDA-MB-435 is > 100 µM (inactive).
In the case of `O=C1C=C(c2ccccc2)O/C1=C/C(=O)c1ccc(Cl)cc1`, the GI50 was > 10 µM (inactive) with NCI-H226; 16.5 µM (inactive) in the assay on MCF7; 19.2 µM (inactive) in the assay with HOP-92; 2.93 µM (inactive) in the assay on SR; 17.2 µM (inactive) with MDA-MB-231; 1.66 µM (inactive) in the assay on HL-60. The GI50 was 16.6 µM (inactive) in the assay with ACHN; 17.8 µM (inactive) in the assay on SF-539; 37.3 µM (inactive) in the assay on DU-145; 23.1 µM (inactive) in the assay with OVCAR-8; 16.2 µM (inactive) with BT-549; 18.9 µM (inactive) in the assay with RXF 393. The GI50 was 30.5 µM (inactive) in the assay with HOP-62; 15.6 µM (inactive) in the assay on OVCAR-4; > 10 µM (inactive) in the assay on T47D; 15.4 µM (inactive) in the assay with HCC 2998; 23.9 µM (inactive) with SF-268; 20.2 µM (inactive) in the assay on TK-10. Also, in the assay with MDA-MB-435, the GI50 was 15.2 µM (inactive).
